Test results from patent publication US4048299A, “Anticaries confectionaries and oral health products” (William Wrigley, Jr. Co., priority 1970, dated 1977).

Experiments:
Lactobacillus casei = experiment: Acid production inhibition, broth-tube technique; settings: single agent
Description: (§2) The data was compiled through well-known broth tube analysis techniques.
(a)Measured by broth-tube technique.

[1] = tested on: Mixed Oral Microorganisms; experiment: Acid production inhibition, broth-tube technique; settings: single agent
Description: as §2
(a)Measured by broth-tube technique.

Streptococcus sp. FA-1 = experiment: Acid production inhibition, broth-tube technique; settings: single agent
Description: as §2
(a)Measured by broth-tube technique.

oral microorganisms = experiment: Acid production inhibition in vitro (summary); format: cell-based; settings: in words, summary of tables
Protocol: Other in vitro evaluations utilized a broth tube analysis of representative anticaries aldehydes incorporated in the vehicles of this invention against cultures of acid producing microorganisms normally present in the mouth. Standard laboratory procedures were utilized throughout to evaluate the acid production inhibition and growth inhibition over the incubation time of up to 24 hours.

Streptococcus spp. KI-R = experiment: Growth inhibition by aldehydes in product vehicles, pour-plate technique; format: cell-based; settings: 1 to 5 percent aldehyde
How it was run: (§1)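 Aldehydes (1 to 5 percent by weight) were formulated into syrups, candies, mouthwash, toothpaste or toothpowder, added directly or as aqueous extracts to medium without a carbon source mixed 1:1 with filter-sterilized human saliva. Sugar came from the product or added sucrose. Growth over up to 24 hours was read by pour-plate count.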

[2] = tested on: Lactobacillus casei ATCC 4646; experiment: as above; format: cell-based; settings: 1 to 5 percent aldehyde
How it was run: as §1

[3] = In vivo caries evaluation, Osborne-Mendel strain 2 rat; design: species or system rat (Osborne-Mendel strain 2); settings: Table I, 90 days
Description: Standard laboratory techniques were used to complie the data presented. In each case the aldehyde was incorporated into each specimen's food in a one percent, by weight, quantity, over a period of several weeks. In all cases, caries reduction was noted.
The aldehydes tested in vivo were pyruvaldehyde, d,1-glyceraldehyde, crystalline dimer, glycolaldehyde, octanaldehyde, nonanaldehyde, decanaldehyde, undecylenic aldehyde, and lauric aldehyde. The polyaldehydes tested were dialdehyde starch, dialdehyde starch 50 percent oxidized, dialdehyde starch 90 percent oxidized, and dialdehyde galactomannan gum.
^(a) Agents were incorporated in the diet at a 1 percent level.

[4] = in compressed candy tablet, 2 h incubation
[5] = in compressed candy tablet, 5 h incubation
[6] = in compressed candy tablet, 24 h incubation
[7] = in dextrose syrup, 2 h incubation
[8] = in dextrose syrup, 5 h incubation
[9] = in dextrose syrup, 24 h incubation
[10] = in sucrose syrup, 2 h incubation
[11] = in sucrose syrup, 5 h incubation
[12] = in sucrose syrup, 24 h incubation
[13] = in tooth powder (aqueous extract), 2 h incubation
[14] = in tooth powder (aqueous extract), 5 h incubation
[15] = in tooth powder (aqueous extract), 24 h incubation
[16] = in toothpaste (aqueous extract), 2 h incubation
[17] = in toothpaste (aqueous extract), 5 h incubation
[18] = in toothpaste (aqueous extract), 24 h incubation
[19] = Student's test, 95 percent confidence limit

Compound: CC(=O)C=O [Pyruvaldehyde]
- Acid Production Inhibition (Lactobacillus casei; 0.005 percent): 24%
- Acid Production Inhibition (Lactobacillus casei; 0.0075 percent): 57%
- Acid Production Inhibition ([1]; 0.005 percent): 5%
- Acid Production Inhibition ([1]; 0.007 percent): 5%
- Acid Production Inhibition ([1]; 0.009 percent): 7%
- Acid Production Inhibition ([1]; 0.011 percent): 7%
- Solubility: water soluble
- Acid Production Inhibition (Streptococcus sp. FA-1; 0.001 percent): 10%
- Acid Production Inhibition (Streptococcus sp. FA-1; 0.002 percent): 35%
- Acid Production Inhibition (oral microorganisms): excellent acid production inhibition
- Growth Inhibition (Streptococcus spp. KI-R; [4]): N.S.
- Growth Inhibition (Streptococcus spp. KI-R; [5]): N.S.
- Growth Inhibition (Streptococcus spp. KI-R; [6]): N.S.
- Growth Inhibition (Streptococcus spp. KI-R; [7]): 100 Per Cent
- Growth Inhibition (Streptococcus spp. KI-R; [8]): 100 Per Cent
- Growth Inhibition (Streptococcus spp. KI-R; [9]): 100 Per Cent
- Growth Inhibition (Streptococcus spp. KI-R; in hard candy, 2 h incubation): > 99.99 Per Cent
- Growth Inhibition (Streptococcus spp. KI-R; in hard candy, 5 h incubation): > 99.99 Per Cent
- Growth Inhibition (Streptococcus spp. KI-R; in hard candy, 24 h incubation): 100 Per Cent
- Growth Inhibition (Streptococcus spp. KI-R; in mouthwash, 2 h incubation): > 99.99 Per cent
- Growth Inhibition (Streptococcus spp. KI-R; in mouthwash, 5 h incubation): > 99.99 Per cent
- Growth Inhibition (Streptococcus spp. KI-R; in mouthwash, 24 h incubation): 100 Per cent
- Growth Inhibition (Streptococcus spp. KI-R; [10]): > 99.9 Per cent
- Growth Inhibition (Streptococcus spp. KI-R; [11]): > 99.99 Per cent
- Growth Inhibition (Streptococcus spp. KI-R; [12]): 100 Per cent
- Growth Inhibition (Streptococcus spp. KI-R; [13]): 100 Per cent
- Growth Inhibition (Streptococcus spp. KI-R; [14]): 100 Per cent
- Growth Inhibition (Streptococcus spp. KI-R; [15]): 100 Per cent
- Growth Inhibition (Streptococcus spp. KI-R; [16]): N.S.
- Growth Inhibition (Streptococcus spp. KI-R; [17]): N.S.
- Growth Inhibition (Streptococcus spp. KI-R; [18]): N.S.
- Growth Inhibition [2, 4]: 99.5 Per Cent
- Growth Inhibition [2, 5]: 100 Per Cent
- Growth Inhibition [2, 6]: 100 Per Cent
- Growth Inhibition [2, 7]: 99.4 Per Cent
- Growth Inhibition [2, 8]: 99.99 Per Cent
- Growth Inhibition [2, 9]: 100 Per Cent
- Growth Inhibition ([2]; in hard candy, 2 h incubation): 92 Per Cent
- Growth Inhibition ([2]; in hard candy, 5 h incubation): 99.85 Per Cent
- Growth Inhibition ([2]; in hard candy, 24 h incubation): 100 Per Cent
- Growth Inhibition [2, 10]: 97.5 Per cent
- Growth Inhibition [2, 11]: > 99.99 Per cent
- Growth Inhibition [2, 12]: > 99.99 Per cent
- Growth Inhibition [2, 13]: N.S.
- Growth Inhibition [2, 14]: 98 Per cent
- Growth Inhibition [2, 15]: 100 Per cent
- Growth Inhibition [2, 16]: N.S.
- Growth Inhibition [2, 17]: N.S.
- Growth Inhibition [2, 18]: 100 Per cent
- Caries Score, Mean Incidence ([3]; 1 percent in diet, L-2000 control 15.08 (pyruvaldehyde test), 13.94 (glycolaldehyde test)): 5.95
- Caries Score, Mean Extent ([3]; 1 percent in diet, L-2000 control 38.80 (pyruvaldehyde test), 35.38 (glycolaldehyde test)): 14.55
- Caries Extent Reduction, statistical evaluation [3, 19]: Significant
- Caries Incidence Reduction, statistical evaluation [3, 19]: Significant
